{"source": "PubChem BioAssay AID1259410", "about": "(Chemical Carcinogenesis Research Information System (CCRIS), 2018)", "origin": "cited, not measured here", "test_system": "rodent tumor promotion studies, tumor incidence", "test": "CCRIS tumor promotion studies", "key": {"[1]": {"conditions": "Carcinogen: 7,12-DIMETHYLBENZ(A)ANTHRACENE, Doses [Carcinogen]: TOP, Route [Carcinogen]: DERMAL, Route [Promoter]: DERMAL, Species: MOUSE, Strain/Sex: FEMALE"}}}
{"smiles": "O=c1cc[nH]c(=O)[nH]1", "values": [{"measurement": "outcome", "setting": "Carcinogen: N-ETHYL-N-HYDROXYETHYLNITROSAMINE, 13147-25-6, Doses [Carcinogen]: 0.05% IN DRINKING WATER FOR 3 WK, Doses [Promoter]: 0, 3% IN DIET FOR 3 WK ADMINISTERED SIMULTANEOUSLY WITH CARCINOGEN (STUDY DURATION: 52 WK), Route [Carcinogen]: ORAL, Route [Promoter]: ORAL, Species: RAT, Strain/Sex: F344/FEMALE", "result": "kidney: adenocarcinoma"}, {"measurement": "outcome", "setting": "Carcinogen: N-METHYL-N-NITROSOUREA, 684-93-5, Doses [Carcinogen]: 20 MG/KG 2/WK FOR 4 WK, Doses [Promoter]: 0, 3% IN DIET FOR 20 WK BEGINNING POST LAST CARCINOGEN DOSE (STUDY DURATION: 24 WK), Route [Carcinogen]: INTRAPERITONEAL, Route [Promoter]: ORAL, Species: RAT, Strain/Sex: F344/MALE", "result": "urinary bladder: carcinoma"}]}
{"smiles": "CC(=O)OCC(CO)OC(C)=O", "note": "(stereo not drawn)", "values": [{"measurement": "outcome", "setting": "Carcinogen: 4-Nitroquinoline 1-oxide, 56-57-5, Doses [Carcinogen]: 10 ppm in drinking water from wks 0-10, study duration 35 wk, Doses [Promoter]: 0, 2.75%, 5.5%, 11% in diet from wks 11-35, study duration 35 wks, Doses [Promoter]: 0, 2.75%, 5.5%, 11% in diet from wks 11-35, study duration 35 wks, Route [Carcinogen]: Oral, Route [Promoter]: Oral, Species: Rat, Strain/Sex: Sprague-Dawley/Male (30/Group)", "result": "tongue: squamous cell papillomas and carcinomas; oral cavity: squamous cell papi"}, {"measurement": "outcome", "setting": "Carcinogen: 7,12-Dimethylbenz(a)anthracene, 57-97-6, Doses [Carcinogen]: 100 ug in 100 ul acetone once at 6 wk of age, Doses [Promoter]: 0, 12, 30, 75 mg, 5 d/wk beginning 1 wk after carcinogen administration for 35 wk, study duration 36 wk, Route [Carcinogen]: Dermal, Route [Promoter]: Dermal, Species: Mouse, Strain/Sex: ICR/Female", "result": "skin: papillomas"}, {"measurement": "outcome", "setting": "Carcinogen: 7,12-Dimethylbenz(a)anthracene, 57-97-6, Doses [Carcinogen]: 100 ug in 100 ul acetone once at 6 wk of age, Doses [Promoter]: 0, 30, 75 mg, twice daily, 5 d/wk beginning 1 wk after carcinogen administration for 35 wk, study duration 36 wk, Route [Carcinogen]: Dermal, Route [Promoter]: Dermal, Species: Mouse, Strain/Sex: ICR/Female", "result": "skin: papillomas and squamous cell carcinomas"}]}
{"smiles": "ClC1=C(Cl)C2(Cl)C3C(Cl)C(Cl)CC3C1(Cl)C2(Cl)Cl", "note": "(stereo not drawn)", "values": [{"measurement": "outcome", "setting": "Carcinogen: DIETHYLNITROSAMINE, 55-18-5, Doses [Carcinogen]: 20 PPM IN DRINKING WATER FOR 14 WK, Doses [Promoter]: 0, 25, 50 PPM TECHNICAL GRADE IN DIET BEGINNING 4 WK POST LAST CARCINOGEN DOSE AND CONTINUING FOR 25 WK (STUDY DURATION:, Doses [Promoter]: 0, 25, 50 PPM TECHNICAL GRADE IN DIET BEGINNING 4 WK POST LAST CARCINOGEN DOSE AND CONTINUING FOR 25 WK (STUDY DURATION:, Route [Carcinogen]: ORAL, Route [Promoter]: ORAL, Species: MOUSE, Strain/Sex: B6C3F1/MALE", "result": "liver: adenoma or carcinoma"}]}
{"smiles": "Oc1ccc(O)cc1", "values": [{"measurement": "outcome", "setting": "Carcinogen: N-ETHYL-N-HYDROXYETHYLNITROSAMINE, 13147-25-6, Doses [Carcinogen]: 0.1% IN DRINKING WATER FOR 3 WK, Doses [Promoter]: 0, 0.8% IN DIET FOR 36 WK BEGINNING 1 WK POST CARCINOGEN TREATMENT (STUDY DURATION: 40 WK), Route [Carcinogen]: ORAL, Route [Promoter]: ORAL, Species: RAT, Strain/Sex: WISTAR/MALE", "result": "kidney: microadenoma, renal cell tumor"}, {"measurement": "outcome", "setting": "Carcinogen: N-METHYL-N-NITROSOUREA [684-93-5], Doses [Carcinogen]: 20 MG/KG BW ONCE ON DAY 9 AFTER BIRTH (STUDY DURATION: 28 WK), Doses [Promoter]: 0.8% IN DIET FOR 26 WK BEGINNING 2 WK POST LAST CARCINOGEN DOSE (STUDY DURATION: 28 WK), Route [Carcinogen]: INTRAPERITONEAL, Route [Promoter]: ORAL, Species: MOUSE, Strain/Sex: ICR (CD-1)/FEMALE", "result": "lung: adenoma"}, {"measurement": "outcome", "setting": "Carcinogen: N-METHYL-N-NITROSOUREA [684-93-5], Doses [Carcinogen]: 20 MG/KG BW ONCE ON DAY 9 AFTER BIRTH (STUDY DURATION: 28 WK), Doses [Promoter]: 0.8% IN DIET FOR 26 WK BEGINNING 2 WK POST LAST CARCINOGEN DOSE (STUDY DURATION: 28 WK), Route [Carcinogen]: INTRAPERITONEAL, Route [Promoter]: ORAL, Species: MOUSE, Strain/Sex: ICR (CD-1)/MALE", "result": "lung: carcinoma"}]}
{"smiles": "Cc1ccc(O)cc1", "values": [{"measurement": "outcome", "setting": "[1]", "result": "integumentary system (skin)"}]}
{"smiles": "ClC1C(Cl)C(Cl)C(Cl)C(Cl)C1Cl", "note": "(stereo not drawn)", "values": [{"measurement": "outcome", "setting": "Carcinogen: DIETHYLNITROSAMINE, 55-18-5, Doses [Carcinogen]: 5 UG/G BW IN 0.1 ML SALINE ONCE AT 15 D OF AGE, Doses [Promoter]: 0, 250 PPM IN DIET FOR 24 WK BEGINNING AT 28 D OF AGE (STUDY DURATION: 26 WK), Route [Carcinogen]: INTRAPERITONEAL, Route [Promoter]: ORAL, Species: MOUSE, Strain/Sex: B6C3F1/FEMALE", "result": "liver: adenoma"}]}
{"smiles": "CC/C=C/C=C/C=C/C=C/C=C/OC[C@@H](O)CO", "values": [{"measurement": "outcome", "setting": "Carcinogen: N-METHYL-N-NITROSOUREA, 684-93-5, Doses [Carcinogen]: 2 NG IN 0.5 ML WATER 3/WK FOR 3 WK, Doses [Promoter]: 0, 400 NG IN 0.5 ML BUFFER 2/WK FOR 24 WK BEGINNING 5 WK POST CARCINOGEN TREATMENT (STUDY DURATION: 32 WK), Route [Carcinogen]: INTRARECTAL, Route [Promoter]: INTRARECTAL, Species: RAT, Strain/Sex: F344/FEMALE", "result": "colon: carcinoma"}]}
{"smiles": "c1ccc(-c2ccccc2)cc1", "values": [{"measurement": "outcome", "setting": "Carcinogen: N-BUTYL-N-(4-HYDROXYBUTYL)NITROSAMINE, 3817-11-6, Doses [Carcinogen]: 0.05% IN DRINKING WATER FOR 4 WK, Doses [Promoter]: 0, 0.5% IN DIET FOR 32 WK BEGINNING POST CARCINOGEN TREATMENT (STUDY DURATION: 36 WK), Route [Carcinogen]: ORAL, Route [Promoter]: ORAL, Species: RAT, Strain/Sex: F344/MALE", "result": "urinary bladder: papilloma, carcinoma"}]}
{"smiles": "ClC(Cl)=C(Cl)C(Cl)=C(Cl)Cl", "values": [{"measurement": "outcome", "setting": "Carcinogen: N-ETHYL-N-HYDROXYETHYLNITROSAMINE, 13147-25-6, Doses [Carcinogen]: 0.1% IN DRINKING WATER FOR 2 WK, Doses [Promoter]: 0, 0.1% IN DIET FOR 30 WK BEGINNING POST CARCINOGEN TREATMENT (STUDY DURATION: 32 WK), Route [Carcinogen]: ORAL, Route [Promoter]: ORAL, Species: RAT, Strain/Sex: WISTAR/MALE", "result": "kidney: renal cell tumor"}]}
{"smiles": "C[C@H](CCC(=O)O)[C@H]1CC[C@H]2[C@@H]3[C@H](O)C[C@@H]4C[C@H](O)CC[C@]4(C)[C@H]3CC[C@]12C", "values": [{"measurement": "outcome", "setting": "Carcinogen: 3-METHYLCHOLANTHRENE, 56-49-5, Doses [Carcinogen]: 3 MG IN BEESWAX PELLET, Doses [Promoter]: 0, 3 MG IN BEESWAX PELLET (STUDY DURATION: 5 MO), Route [Carcinogen]: IMPLANT, Route [Promoter]: IMPLANT, Species: HAMSTER", "result": "gallbladder: tumor"}, {"measurement": "outcome", "setting": "Doses [Carcinogen]: IR, Route [Carcinogen]: RECTAL, Route [Promoter]: RECTAL, Species: RAT, Strain/Sex: FEMALE", "result": "colon"}]}
{"smiles": "CC(=O)O[C@@]12[C@H](OC(=O)/C=C(C)/C=C/C=C(C)/C=C/C3=C(C)CCCC3(C)C)[C@@H](C)[C@@]3(O)[C@@H](C=C(CO)C[C@]4(O)C(=O)C(C)=C[C@@H]34)[C@@H]1C2(C)C", "values": [{"measurement": "outcome", "setting": "Carcinogen: 7,12-DIMETHYLBENZ[A]ANTHRACENE, 57-97-6, Doses [Carcinogen]: 10 NMOL ONCE, Doses [Promoter]: 0, 2.5, 5 UG IN 0.2 ML ACETONE 2/WK FOR 21 WK BEGINNING 1 WK POST CARCINOGEN (STUDY DURATION: 21 WK), Doses [Promoter]: 0, 2.5, 5 UG IN 0.2 ML ACETONE 2/WK FOR 21 WK BEGINNING 1 WK POST CARCINOGEN (STUDY DURATION: 21 WK), Route [Carcinogen]: DERMAL, Route [Promoter]: DERMAL, Species: MOUSE, Strain/Sex: SENCAR/FEMALE", "result": "skin: papilloma"}]}
{"smiles": "C=C[C@@](C)(CCC=C(C)C)c1ccc2c3c(c[nH]c13)C[C@@H](CO)NC(=O)[C@H](C(C)C)N2C", "values": [{"measurement": "outcome", "setting": "Carcinogen: 7,12-DIMETHYLBENZ[A]ANTHRACENE, 57-97-6, Doses [Carcinogen]: 100 UG IN 0.1 ML ACETONE, Doses [Promoter]: 0, 3 UG IN 0.1 ML ACETONE 2/WK FOR 29 WK BEGINNING 1 WK POST CARCINOGEN DOSE (STUDY DURATION: 30 WK), Route [Carcinogen]: DERMAL, Route [Promoter]: DERMAL, Species: MOUSE", "result": "skin: tumor"}, {"measurement": "outcome", "setting": "Carcinogen: DIMETHYLBENZ[A]ANTHRACENE, 57-97-6, Doses [Carcinogen]: 100 UG IN 100 µL ACETONE APPLIED TO THE BACK ONCE, Doses [Promoter]: 2.5 UG IN 100 µL ACETONE APPLIED TO THE BACK FOR 30 WK BEGINNING 1 WK POST CARCINOGEN DOSE (STUDY DURATION: 31 WK), Route [Carcinogen]: DERMAL, Route [Promoter]: DERMAL, Species: MOUSE, Strain/Sex: CD-1/FEMALE", "result": "skin: papilloma"}]}
{"smiles": "C=O", "values": [{"measurement": "outcome", "setting": "Carcinogen: Benzo[a]pyrene, 50-32-8, Doses [Carcinogen]: 150 mg applied once, Doses [Promoter]: 0 (acetone), 0.1, 0.5, 1.0 mg/mouse, 3x.wk for 26 wk, study duration 26 wk, Doses [Promoter]: 0 (acetone), 0.1, 0.5, 1.0 mg/mouse, 3x.wk for 26 wk, study duration 26 wk, Route [Carcinogen]: Not reported, Route [Promoter]: Dermal, Species: Mouse, Strain/Sex: CD-1/Female (30/Group)", "result": "skin: results were negative"}, {"measurement": "outcome", "setting": "Carcinogen: N,N-Diethylnitrosamine, 55-18-5, Doses [Carcinogen]: 0.5 mg injections once a wk for 10 wk, Doses [Promoter]: 30 ppm weekly doses in various combinations from wk 12 for life of the animal, Route [Carcinogen]: Subcutaneous, Route [Promoter]: Inhalation, Species: Hamster, Strain/Sex: Syrian golden/Male (50/Group_", "result": "nasal epithelium: results were negative"}]}
{"smiles": "CC(C)(Oc1ccc(C2CCCc3ccccc32)cc1)C(=O)O", "note": "(stereo not drawn)", "values": [{"measurement": "outcome", "setting": "Carcinogen: DIETHYLNITROSAMINE, 55-18-5, 2-ACETYLAMINOFLUORENE, 6292-55-3, CARBON TETRACHLORIDE, 56-23-5, Carcinogen: DIETHYLNITROSAMINE, 55-18-5, 2-ACETYLAMINOFLUORENE, 6292-55-3, CARBON TETRACHLORIDE, 56-23-5, Doses [Carcinogen]: 200 MG/KG ONCE FOLLOWED 2 WK LATER BY 0.03% 2-ACETYLAMINOFLUORENE IN DIET FOR 2 WK PLUS 2 ML/KG CARBON TETRACHLORIDE IN, Doses [Promoter]: 0.1% IN DIET STARTING 1 WK POST 2-ACETYLAMINOFLUORENE AND CONTINUED FOR 6 MO (STUDY DURATION: 7 MO), Route [Carcinogen]: INTRAPERITONEAL, ORAL, INTRAGASTRIC, Route [Carcinogen]: INTRAPERITONEAL, ORAL, INTRAGASTRIC, Route [Promoter]: ORAL, Species: RAT, Strain/Sex: WISTAR/MALE", "result": "liver: hepatocellular carcinoma"}]}
{"smiles": "CCCCCCCC/C=C\\CCCCCCCC(=O)OC1CC2CCC1(C)C2(C)C", "note": "(stereo not drawn)", "values": [{"measurement": "outcome", "setting": "[1]", "result": "integumentary system (skin)"}]}
